# Measured values: ChEMBL document CHEMBL3785071, “Development of potential broad spectrum antimicrobials using C2-symmetric 9-fluorenone alkyl amine” (Bioorg Med Chem Lett, 2016)
# Activity calls are given as the source filed them. The rule behind the calls is not given here.
# Experiments:
# [1] = Inhibition of Bacillus anthracis Sterne 34F2 DnaG primase activity using a DNA 32-mer template; parameters: species or system Bacillus anthracis str. Sterne
# [2] = system: Staphylococcus aureus; test: Antibacterial activity against Staphylococcus aureus ATCC 25923 after 20 hrs; assay type: functional
# [3] = system: Staphylococcus aureus; test: Inhibition of Staphylococcus aureus DnaG primase activity after 1 hr by HPLC analysis
# [4] = system: Escherichia coli; test: Antibacterial activity against Escherichia coli ATCC 35218 after 20 hrs; assay type: functional; details: ATCC 35218, 20 h
# [5] = system: Burkholderia cepacia; test: Antibacterial activity against Burkholderia cepacia ATCC 25608 after 20 hrs; assay type: functional
# [6] = system: Yersinia pestis; test: Antibacterial activity against Yersinia pestis A1122 after 20 hrs; assay type: functional; details: A1122, 20 h
# [7] = system: Bacillus anthracis; test: Antibacterial activity against Bacillus anthracis Sterne after 20 hrs; assay type: functional
# [8] = system: Pseudomonas aeruginosa; test: Antibacterial activity against Pseudomonas aeruginosa ATCC 27853 after 20 hrs; assay type: functional; details: ATCC 27853, 20 h
# [9] = system: Staphylococcus aureus; test: Antibacterial activity against methicillin-resistant Staphylococcus aureus Lac JE2 USA300 at 100 ug/ml after 20 hrs; assay type: functional, organism-based
# [10] = system: Francisella tularensis subsp. holarctica; test: Antibacterial activity against Francisella tularensis subsp. holarctica ATCC 29684 at 100 ug/ml after 20 hrs; assay type: functional
# [11] = system: Klebsiella pneumoniae; test: Antibacterial activity against Klebsiella pneumoniae ATCC BAA-1706 at 100 ug/ml after 20 hrs; assay type: functional, organism-based
# [12] = system: Burkholderia thailandensis; test: Antibacterial activity against Burkholderia thailandensis ATCC 700388 after 20 hrs; assay type: functional
# [13] = system: Escherichia coli; test: Antibacterial activity against Escherichia coli ATCC 35218 at 100 ug/ml after 20 hrs; assay type: functional, organism-based
# [14] = system: Burkholderia thailandensis; test: Antibacterial activity against Burkholderia thailandensis ATCC 700388 at 100 ug/ml after 20 hrs; assay type: functional
# [15] = system: Yersinia pestis; test: Antibacterial activity against Yersinia pestis A1122 at 100 ug/ml after 20 hrs; assay type: functional
# [16] = system: Staphylococcus aureus; test: Antibacterial activity against Staphylococcus aureus ATCC 25923 at 100 ug/ml after 20 hrs; assay type: functional, organism-based
# [17] = system: Pseudomonas aeruginosa; test: Antibacterial activity against Pseudomonas aeruginosa ATCC 27853 at 100 ug/ml after 20 hrs; assay type: functional, organism-based
# [18] = system: Burkholderia cepacia; test: Antibacterial activity against Burkholderia cepacia ATCC 25608 at 100 ug/ml after 20 hrs; assay type: functional, organism-based
# [19] = Antibacterial activity against Francisella tularensis subsp. holarctica ATCC 29684 after 20 hrs; assay type: functional; details: ATCC 29684, 20 h
# [20] = system: Staphylococcus aureus; test: Antibacterial activity against methicillin-resistant Staphylococcus aureus Lac JE2 USA300 after 20 hrs; assay type: functional; details: LAC JE2 USA300, 20 h
# [21] = system: Klebsiella pneumoniae; test: Antibacterial activity against Klebsiella pneumoniae ATCC BAA-1706 after 20 hrs; assay type: functional; details: ATCC BAA-1706, 20 h
Structure (SMILES),"MIC ([5]; ATCC 25608, 20 h) [µg/mL]",MIC [7] [µg/mL],Activity [9],Activity [10],Activity [11],Activity [13],Activity [14],Activity [15],Activity [16],Activity [17],MIC [19] [µg/mL],MIC [20] [µg/mL],further results
CCN(CC)CCOc1ccc2c(c1)C(=O)c1cc(OCCN(CC)CC)ccc1-2 [TILORONE],–,–,–,–,–,–,–,–,–,–,–,–,IC50 [1]: 7.1 µM; Activity [2]: inactive; inhibition [3]: Active
C=CCN(C)CCCOc1ccc2c(c1)C(=O)c1cc(OCCCN(C)CC=C)ccc1-2,100,100,inactive,inactive,inactive,–,–,–,–,–,–,–,MIC [4]: 100 µg/mL; MIC [6]: 100 µg/mL; MIC [8]: 100 µg/mL; MIC [2]: inactive; MIC [12]: inactive
O=C1c2cc(OCCCN3CCCCC3)ccc2-c2ccc(OCCCN3CCCCC3)cc21,–,75,inactive,inactive,inactive,inactive,inactive,inactive,inactive,–,–,–,MIC [5]: inactive; MIC [8]: 100 µg/mL
C=CCN(C)CCOc1ccc2c(c1)C(=O)c1cc(OCCN(C)CC=C)ccc1-2,–,100,inactive,inactive,inactive,inactive,inactive,inactive,inactive,inactive,–,–,Activity [18]: inactive
C=CCN(C)CCCCCCCCOc1ccc2c(c1)C(=O)c1cc(OCCCCCCCCN(C)CC=C)ccc1-2,100,17.5,–,–,inactive,inactive,–,inactive,–,inactive,37.5,16,"MIC ([2]; ATCC 25923, 20 h): 50 µg/mL; MIC ([12]; ATCC 700388, 20 h): 17.5 µg/mL"
O=C1c2cc(OCCCCCCCCN3CCCCC3)ccc2-c2ccc(OCCCCCCCCN3CCCCC3)cc21,87.5,17.5,–,–,–,inactive,–,inactive,–,inactive,37.5,16,"MIC [21]: 100 µg/mL; MIC ([2]; ATCC 25923, 20 h): 62.5 µg/mL; MIC ([12]; ATCC 700388, 20 h): 25 µg/mL"
C=CCOc1ccc2c(c1)C(=O)c1cc(OCCCN(C)CC=C)ccc1-2,–,25,–,–,inactive,inactive,inactive,inactive,inactive,inactive,50,32,Activity [18]: inactive
O=C1c2cc(OCCN3CCCCC3)ccc2-c2ccc(OCCN3CCCCC3)cc21,100,100,inactive,inactive,inactive,inactive,inactive,inactive,inactive,inactive,–,–,–
